Numbers after ± are expanded uncertainties.
Key:
[1] = molar enthalpy of vaporization or sublimation; conditions: 298.15 K, Static calorimetry
[2] = Molar enthalpy of transition or fusion; conditions: Crystal; DSC
[3] = Crystal; DTA

Row | Compound | molar enthalpy ([1]; Crystal) [kcal/mol] | Molar enthalpy of transition or fusion [2] [kcal/mol] | Normal melting temperature [3] [°C] | molar enthalpy ([1]; Liquid) [kcal/mol]
1 | N[C@H]1CC[C@H](N)CC1 [trans-1,4-cyclohexanediamine] | 25.1 ± 0.382 | 6.45 ± 0.167 | 69.0 ± 0.5 | 
2 | N[C@H]1CC[C@@H](N)CC1 [cis-1,4-cyclohexanediamine] |  |  |  | 14.9 ± 0.454
